Patent US20190365762A1, “MEDICINAL COMPOSITION INHIBITING NEOVASCULARIZATION PROLIFERATION FACTOR” (KYOTO UNIVERSITY, priority 2014, published 2019)
Entries after “also recorded” stand apart in the source; their conditions may differ.

Key:
[1] = test system: model mice with choroidal neovascularization (CNV); assay: CNV formation in laser-induced CNV model mice, intravitreal injection (Experiments 2 and 3); type: in vivo; settings: for CNV formation (area of CNV): 20 pmol intraocularly injected immediately after laser irradiation, 7 days, C57B/6J mice, FIG. 2
Method: [Experiment 2: Evaluation of Effect of Inhibiting CNV Formation by Compounds 1 to 3]
The synthesized compounds 1 to 3 and the above reference compound were administered to model mice with choroidal neovascularization (CNV) by intravitreal injection, and the CNV inhibition was evaluated. The details of the experiment are as follows. FIG. 2 illustrates the results.
100 mg/kg of ketamine and 10 mg/kg of xylazine were intraperitoneally injected into 6- to 8-week-old C57B/6J mice (Japan SLC, Inc.), and the mice were placed under anesthesia. Then, eyedrops (SANDOL P) containing tropicamide (5 mg/ml) and phenylephrine (5 mg/ml) were used to dilate the pupil. Any four points of the fundus were irradiated with a 532 nm argon laser (100 mW, 0.1 s, 75 μm) to form new blood vessels. The compound (20 pmol) was intraocularly injected immediately after the laser irradiation, and an ofloxacin (Tarivid) ophthalmic ointment was applied to the corneal surface to prevent infection and drying.
100 mg/kg of ketamine and 10 mg/kg of xylazine were intraperitoneally injected into the mice after 7 days had passed from the laser irradiation, and the mice were placed under anesthesia. Then, the mice underwent thoracotomy and were perfused with FITC-dextran (50 mg/ml; Life Technologies Japan Ltd.) through the left ventricle. After the perfusion, the eyes were enucleated and fixed in 4% paraformaldehyde. After the fixation, the corneas, crystalline lenses, and retinas were removed, and the flat mount of the choroid was obtained. CNV was imaged with a fluorescence microscope (BZ-9000; Keyence Corporation) so that the area of the CNV was measured.
An experiment was performed in the same manner as Experiment 2 by administering the compound 2 at different concentrations (0.2 µM, 2 µM, 20 µM), and the CNV inhibition was evaluated. FIG. 3 illustrates the results.

[2] = test system: vascular endothelial growth factor (VEGF); assay: VEGF protein in culture medium of ARPE-19 cells by ELISA (Experiment 1); type: cell-based, human; settings: compound 10 μM, TGF-β 1 nM, 72 hours, FIG. 1
Method: [Experiment 1: Evaluation of Effect of Inhibiting VEGF Expression by Compounds 1 to 3]
The synthesized compounds 1 to 3 and the following reference compound were administered to human retinal pigment epithelial cells (ARPE-19 cell line). After 3 days of cultivation, each culture medium was subjected to ELISA to determine a vascular endothelial growth factor (VEGF). The details of the experiment are as follows. FIG. 1 illustrates the results.
A retinal pigment epithelial cell line, i.e., ARPE-19 was used. The ARPE-19 was cultured in Ham's F-12/DMEM medium containing 10% fetal bovine serum and 1% penicillin-streptomycin solution. The cells were seeded on a 24 well plate at 1.0×10^4 cell/well. On the next day, the culture medium was replaced with 1% fetal bovine serum. Further, the culture medium was removed 24 hours later and replaced with a culture medium (containing 1% fetal bovine serum) to which the compound (10 μM) and TGF-β (1 nM) were added. The culture medium was replaced every 24 hours in the same manner. Then, the culture medium was collected after 72 hours had passed from the administration of the compound. An ELISA kit (manufactured by R&D Systems, Inc.) was used to measure the amount of VEGF protein in the culture medium. The absorbance was measured by an ARVO X5 multiplate reader.

[3] = test system: model mice with choroidal neovascularization (CNV); assay: CNV formation in CNV model mice, ophthalmic ointment (Experiment 4); type: in vivo; settings: ophthalmic ointment with 10 g compound 2 per 100 g, 7 μL three times a day, versus base material only, FIG. 4
Method: [Experiment 4: Preparation of Ophthalmic Ointment and Evaluation of Effect of Inhibiting CNV Formation by Using the Ophthalmic Ointment]
An ophthalmic ointment with the following composition was prepared.
60 g of liquid paraffin; and
30 g of white petrolatum.
An experiment was performed in the same manner as Experiment 2 except that the ophthalmic ointment was applied in a dose of 7 μL three times a day, instead of the intravitreal injection, and the CNV inhibition was evaluated. Moreover, an ophthalmic ointment containing only a base material was used as a control, and the same experiment was performed. FIG. 4 illustrates the results. A of FIG. 4 is a graph that indicates the area of CNV.

SRPK (kinase) = settings: see WO 2005/063293; cited from earlier work
[4] = test system: retinal neovascularization; settings: Nowak D G, Bates D O et al., J. Bio. Chem. 2010; cited from earlier work
[5] = see WO 2005/063293; cited from earlier work

Compound	melting point	CNV formation (area of CNV) [1]	concentration dependence of reduction of CNV formation ([1]; intravitreal injection, FIG. 3)	amount of VEGF protein in the culture medium [2]	CNV formation (area of CNV) [3]	SRPK (kinase) inhibition (SRPK (kinase))	retinal neovascularization [4]	antiviral activity [5]
COc1cc(/C=C2/C(=O)NN(c3ccc(Cl)c(Cl)c3)C2=O)ccc1O [compound 1, 1-(3,4-dichlorophenyl)-4-(4-hydroxy-3-methoxybenzylidene)pyrazolidine-3,5-dione]	260 °C (dec.)	significant						
COc1cc(/C=C2\C(=N)N3N=C(C(F)(F)F)SC3=NC2=O)ccc1O [compound 2, 6-(4-hydroxy-3-methoxybenzylidene)-5-imino-2-(trifluoromethyl)-5,6-dihydro-7H-[1,3,4]thiadiazolo[3,2-a]pyrimidin-7-one]	224 to 225 °C	significant; also recorded: more prominent	reduced the CNV formation in a concentration-dependent manner	particularly significant	reduced the CNV formation			
O=C(Nc1cc(C(F)(F)F)ccc1N1CCCCC1)c1ccncc1 [reference compound]						inhibits SRPK	suppress retinal neovascularization	has antiviral activity
